Earlier results in patent publication US20240108740A1, “THERAPEUTIC COMPOSITIONS INCLUDING SPN10 AND USES THEREOF” (Stealth BioTherapeutics Inc., priority 2022, published 2024).
Non-standard residues stand in square brackets, D forms with d.

How the values were obtained:
[1] = test system: several mammalian cell types; settings: energy-independent manner; Zhao et al. 2003; cited from earlier work
cell stress recovery = settings: Mitchell et al., bioRxiv; cited from earlier work

| Substance | penetration of the plasma membrane [1] | performance compared with SS-31 (cell culture assays, structure-activity analysis) (cell stress recovery) |
| --- | --- | --- |
| H-2′,6′-Dmt-D-Arg-Phe-Lys-NH2 | readily penetrates the plasma membrane |  |
| H-D-Arg-Tyr-Lys-Phe-NH2 (H-[dR]YKF-NH2; SMILES N=C(N)NCCC[C@@H](N)C(=O)N[C@@H](Cc1ccc(O)cc1)C(=O)N[C@@H](CCCCN)C(=O)N[C@@H](Cc1ccccc1)C(N)=O) [SPN4, reference compound] |  | consistently outperformed SS-31 |
| H-F[dR]FK-NH2 [SS-20, reference compound] |  | consistently outperformed SS-31 |
